One molecule from patent US20060084657A1, “Piperazine derivative” (priority 2001, published 2006) can be followed below.

For this assay, the target named is T1, human MC4 receptor (Homo sapiens, UniProt P32245).
T1 construct: purchased BioLinks K.K; host or cells: HEK-293 cell membranes
The assay can be described thus: Test for binding to MC4 receptor. Conditions: HEK-293 cell membranes expressing the human MC4 receptor; [125I]Nle4-D-Phe7-α-MSH 0.2 nM; 25° C. for 120 minutes. As to the method:
The test for binding to MC4 receptor was carried out according to the method as described in Pharmacology & Toxicology, 79, 161-165, 1996. HEK-293 cell membranes expressing the human MC4 receptor were purchased from BioLinks K.K. The cell membranes were homogenized in a 50 mM Tris-hydrochloric buffer (pH 7.4) containing 2 mM ethylenediaminetetraacetic acid, 10 mM calcium chloride and 100 μM phenymethylsulfonyl fluoride. The homogenate was centrifuged at 48,000×g at 4° C. for 20 minutes. The precipitate obtained by centrifugation was re-homogenized in the same buffer, and then the homogenate was centrifuged at 48,000×g at 4° C. for 20 minutes. This manipulation was repeated twice. The precipitates were suspended in a 50 mM Tris-hydrochloric acid buffer (pH 7.4) containing 2 mM ethylenediaminetetraacetic acid, 10 mM calcium chloride, 100 μM phenymethylsulfonyl fluoride and 0.1% bovine serum albumin so as to provide a protein concentration of 100 μg/ml. The suspension was used for the binding test as a crude membrane specimen. The crude membrane specimen (0.25 ml, 25 μg protein) was allowed to react with [^125I]Nle^4-D-Phe^7-α-MSH (final concentration of 0.2 nM) at 25° C. for 120 minutes. […] Radioactivity on the filter papers was measured using a γ-counter. […] IC50 value was calculated from inhibition curve at concentrations of from 10^−8 to 10^−5.

T1 sequence (P32245 whole entry): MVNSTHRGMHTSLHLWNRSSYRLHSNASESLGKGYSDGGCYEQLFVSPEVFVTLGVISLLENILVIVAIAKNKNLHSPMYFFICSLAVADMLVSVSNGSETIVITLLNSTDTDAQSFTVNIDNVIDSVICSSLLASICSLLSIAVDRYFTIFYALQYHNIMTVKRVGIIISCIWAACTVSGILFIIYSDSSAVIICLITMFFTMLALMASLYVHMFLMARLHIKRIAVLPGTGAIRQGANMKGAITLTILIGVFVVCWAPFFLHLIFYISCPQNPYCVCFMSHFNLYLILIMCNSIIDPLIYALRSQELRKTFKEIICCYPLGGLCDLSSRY

`CC(C)N1CCN(C(CN2CCN(CCCc3sc(-c4ccccc4)nc3-c3ccccc3)CC2)c2ccc(F)cc2)CC1` (stereo not shown) [Compound 86]: the IC50 (as a rule, the concentration needed to halve the response being measured) came out at 162 nM.
